Measured values reported in patent US20240322218A1, “DIAMONDOID SALTS AND RELATED COMPOSITIONS” (Wisconsin Alumni Research Foundation, priority 2021, published 2024).
One block for each compound: values may come before it.

Experiments:
[1] = Cyclic voltammetry, cathodic stability / solvent protection; settings: comparable electrochemical potentials, FIGS. 6 and 7
Excerpt: Included representative data was acquired using a platinum counter electrode, a silver/silver nitrate (Ag/AgNO3) acetonitrile non-aqueous reference electrode, and a variety of working electrodes, which spans a wide-range of standard materials and protocols for electrochemical characterization of ionic liquids and organic plastic crystals. The hardware used was a Biologic potentiostat model SP-300.
A representative procedure using acetonitrile as a solvent and Ag as the working electrode was as follows: • 1. Measure the concentration of water in acetonitrile using Karl Fischer titration. • a. Adjust concentration to ˜1000 ppm water in acetonitrile solvent. • 2. Add diamondoid salt containing electrolyte to make a defined concentration in a 4-dram scintillation vial. • 3. Polish the working electrode using alumina slurry and a polishing pad. • 4. Polish the counter electrode and the Ag wire for the reference electrode. • 5. Clean the electrode surfaces and sonicate for ˜5 seconds. Dry the counter and Ag wire electrode. • 6. Prepare the non-aqueous reference electrode by adding new reference electrolyte consisting of 0.01M AgNO3 and 0.1M tetrabutylammonium tetrafluoroborate (TBA BF4) in acetonitrile. Add the silver wire. • 7. Assemble the electrochemical cell using a custom-printed electrochemical cap by adding the counter, reference, and working electrodes. • 8. […]

[2] = literature (Lassegues et al. 2009); cited from earlier work
[3] = Static 7Li NMR linewidth (lithium mobility) of mixtures with [Li][TFSI]; assay type: physicochemical; settings: for Peak Width: static 7Li NMR, 0.1 mole fraction [Li][TFSI] mixtures with the TFSI salt of the cation
Protocol: All NMR measurements were carried out at 11.7 T using a broad band two channel 4 mm standard-bore cross-polarization magic-angle spinning (CP MAS) probe on a Bruker Avance III spectrometer with a proton radio frequency of 500.22 MHz, a ^13C radio frequency of 125.76 MHZ, a ^19F radio frequency 470.66 MHz, and a ^7Li radio frequency 194.40 MHz. The MAS rate was 10 KHz for the CP and ^19F experiments, and static for the ^7Li experiments. 4 mm zirconium rotors with Torlon caps and Viton O-rings were used. Approximately 100 mg of samples was packed into each rotor. All samples were prepared and sealed in a nitrogen glove box. The spinning axis was calibrated to the magic angle using KBr.
^7Li NMR spectra were acquired using […] the same instrumentation used for ^13C NMR. Protocols and pulse sequences were modified to enhance cross-polarization of ^7Li nuclei. Spectra shown represent 16 signal averages with a 0.05 second acquisition time and a 256 second recycle delay between scans. A pulse length of 2 μs was used to maintain a flip angle of less than π/6.
To evaluate the hypothesis that suppression of lithium coordination and incorporation of rigid molecular species can mobilize lithium, solid state NMR spectroscopy of ^7Li was performed to evaluate changes in lithium linewidths as a means of measuring changes in lithium mobility. Static ^7Li NMR spectra indicate the degree of chemical shift anisotropy that the lithium atoms experienced in each salt mixture. […] If the magnetic moment is dependent on the crystallographic orientation, then the lithium is more heavily interacting with the surrounding atoms.

[4] = Phase characterization / miscibility with [Li][TFSI] (DSC); assay type: physicochemical; settings: for eutectic composition / miscibility gap onset (single phase solid to binary phase solid transition): mixtures with [Li][TFSI]
Protocol: The physical properties of the electrolytes, including solubility, thermal stability, phase transition temperatures, viscosity, and density were measured using a combination of accepted characterization techniques, including differential scanning calorimetry (DSC—measurement of phase transition temperatures), thermogravimetric analysis (TGA—measurement of thermal stability), particle-tracking micro-rheology (viscosity), and hydrometer (density). […] Phase transition temperatures, densities, and viscosities were seen to be dependent on the structures of diamondoid salts, as well as presence of additional “dopant” species, such as lithium salts, other diamondoid salts, or solvent molecules. Melting transitions ranged from below room temperature (below: 15° C.) to above 100° C., which spans the entire definition of an “ionic liquid,” range, as well as “organic plastic crystal” electrolyte range.
[Li][TFSI] and organic salt mixtures were melted together under vacuum at 100° C. The melting point of [DiamImMe][TFSI] and [AdImAd][TFSI] exceeded 100° C., so mixtures with those salts were melted and dried at 150° C. Heating was avoided above 150° C. as [Li][TFSI] is reported to undergo an oxidation reaction at temperatures approaching the melting point of pure [Li][TFSI]. After two days, samples were moved to a nitrogen glove box. Water and oxygen levels in the glovebox were monitored to be less than 0.5 ppm.
Differential scanning calorimetry (DSC) was performed using a TA instruments Q100. Samples were sealed in hermetic pans inside of a glovebox. [AdImMe][TFSI], [Me2AdImMe][TFSI], [DiamImMe][TFSI], and [AdImAd][TFSI] samples were equilibrated at −50° C., held at that temperature for three minutes, and then heated to 250° C. at a rate of 2° C. per minute. [C14MIm][TFSI] samples were cooled at a rate of 1° C. per minute to −50° C., held at that temperature for three minutes, and then heated to 250° C. at 2° C. per minute. […] Since no phase change was present, these faster scans were performed to look for the dissolving of [Li][TFSI].

[5] = Raman spectroscopy of the TFSI stretching mode; assay type: physicochemical; settings: for TFSI Raman shift: neat TFSI salt of the cation, 532 nm laser
Excerpt: Raman spectra were taken on a LabRAM HR Evolution Horiba microscope using a 532 nm laser and grating of 1800 gr/mm. All Raman spectra were fitted and processed using Horiba's LabSpec6 software. Samples were sealed in glass slides inside of a nitrogen glove box using paraffin wax before spectra were taken.

melting point: 230 to 234.1 °C
Compound: Cn1cc[n+](C23CC4CC(CC(C4)C2)C3)c1.[Br-]

Compound: 1-ethyl-3-methylimidazolium bis(trifluoromethylsulfonyl)imide
cathodic stability [1]: pronounced cathodic decomposition | phase transition via Raman spectroscopy [2]: 0.2 mole fraction [Li][TFSI]

Compound: [Br-].c1c[n+](C23CC4CC(CC(C4)C2)C3)cn1C12CC3CC(CC(C3)C1)C2 [Compound 4, 1,3-bis(adamantan-1-yl)imidazolium bromide]
melting point: 327.5 to 329.9 °C

Peak Width [3]: 1634 Hz | miscibility with lithium bis(trifluorosulfonyl)imide ([4]; lithium salt in the diamondoid salt): up to 50 mol % | eutectic composition [4]: ~0.5 mol fraction [Li][TFSI] | miscibility gap onset (single phase solid to binary phase solid transition) [4]: 0.2 mol fraction [Li][TFSI] | TFSI Raman shift [5]: 743 cm⁻¹
Compound: Cn1cc[n+](C23CC4C5CC6CC4C(C2)C(C6)C5C3)c1 [Compound 5, 3-(diamantan-4-yl)-1-methylimidazolium bis(trifluoromethane)sulfonimide]

Compound: O=S(=O)([N-]S(=O)(=O)C(F)(F)F)C(F)(F)F.c1c[n+](C23CC4CC(CC(C4)C2)C3)cn1C12CC3CC(CC(C3)C1)C2 [[AdImAd][TFSI]]
Peak Width [3]: 3159 Hz | change of TFSI Raman spectrum in equimolar mixture with [Li][TFSI] [5]: essentially eliminated | TFSI Raman shift [5]: ca. 740 cm^−1 | TFSI Raman shift ([5]; listed as AdImAd): 740 cm⁻¹

Compound: C[n+]1ccn(C23CC4CC(CC(C4)C2)C3)c1.O=S(=O)([N-]S(=O)(=O)C(F)(F)F)C(F)(F)F [[AdImMe][TFSI]]
peak thinner than 0.1 mole fraction [Li][TFSI] in N-ethyl-N-methylpyrrolidinium bis(fluorosulfonyl)imide mixture ([3]; 0.1 mole fraction [Li][TFSI] mixture): 10% | Peak Width [3]: 454 Hz | eutectic composition [4]: ~0.5 mol fraction [Li][TFSI] | miscibility gap onset (single phase solid to binary phase solid transition) [4]: 0.2 mol fraction [Li][TFSI] | change of TFSI Raman spectrum in equimolar mixture with [Li][TFSI] [5]: no statistical change | TFSI Raman shift [5]: ca. 745 cm^−1 | TFSI Raman shift ([5]; listed as AdImMe): 745 cm⁻¹

Compound: CCCCCCCCCCn1cc[n+](C)c1.O=S(=O)([N-]S(=O)(=O)C(F)(F)F)C(F)(F)F [[C10MIm][TFSI], 1-decyl-3-methylimidazolium TFSI, reference compound]
TFSI Raman shift [5]: 742 cm⁻¹ | TFSI Raman shift ([5]; listed as [C10ImMe][TFSI]): ca. 742 cm^−1

Compound: CCCCCCCCCCCCCCn1cc[n+](C)c1.O=S(=O)([N-]S(=O)(=O)C(F)(F)F)C(F)(F)F [[C14MIm][TFSI], 1-tetradecyl-3-methylimidazolium TFSI, reference compound]
TFSI Raman shift [5]: 742 cm⁻¹ | TFSI Raman shift ([5]; listed as [C14ImMe][TFSI]): ca. 742 cm^−1

Compound: O=S(=O)([N-]S(=O)(=O)C(F)(F)F)C(F)(F)F.[Li+] [[Li][TFSI], lithium bis(trifluorosulfonyl)imide, reference compound]
TFSI Raman shift [5]: ca. 747 cm^−1 | TFSI Raman shift ([5]; listed as Li): 747 cm⁻¹

Compound: C[n+]1ccn(C23CC4CC(C)(CC(C)(C4)C2)C3)c1.O=S(=O)([N-]S(=O)(=O)C(F)(F)F)C(F)(F)F [[Me2AdImMe][TFSI]]
TFSI Raman shift [5]: 741 cm⁻¹
